Holding throughout (assay): HPLC product quantification, Eadie-Hofstee plot
Type in all cases: biochemical, Scutellaria baicalensis
Holding throughout (conditions): UDP-Glc as donor; 100 mM Tris-HCl pH 7.0, 37 °C, 10 min; baicalein 0.5-200 μM

One assay concerns T1, SbUGT2.
T1 construct: full-length ORF (RT-PCR) in pYesdest17, E. coli Rosetta (DE3), Ni-NTA purified
From the text: HPLC product quantification, Eadie-Hofstee plot on SbUGT2

The next assay has as its system T2, SbUGT3.
T2 construct: full-length ORF (RT-PCR) in pYesdest17, E. coli Rosetta (DE3), Ni-NTA purified
From the text:
HPLC product quantification, Eadie-Hofstee plot on SbUGT3

A further assay relates to T3, SbUGT1.
T3 construct: full-length ORF (de novo synthesized) in pYesdest17, E. coli Rosetta (DE3), Ni-NTA purified
The source says: HPLC product quantification, Eadie-Hofstee plot on SbUGT1

The structures appear in SMILES notation.

For the compound `O=c1cc(-c2ccccc2)oc2cc(O)c(O)c(O)c12` [baicalein], the Km in the assay on SbUGT2 came to 101 µM; with SbUGT3, 2.67 µM; in the assay with SbUGT1 it was 3.14 µM.

The term Km denotes the substrate concentration at which the rate is half of its maximum.

The record behind these values is paper PMC8888134, “Characterization of UDP-glycosyltransferase family members reveals how major flavonoid glycoside accumulates in the roots of Scutellaria baicalensis” (BMC Genomics, 2022).
